According to patent US11180462B2, “Microbiocidal oxadiazole derivatives” (SYNGENTA PARTICIPATIONS AG, priority 2015, dated 2021):

Columns and labels:
[1] = system: Glomerella lagenarium (Colletotrichum lagenarium); experiment: Fungicidal activity against Glomerella lagenarium (Colletotrichum lagenarium) liquid culture / cucumber / preventative (anthracnose); type: cell-based; settings: Colletotrichum orbiculare; 20 ppm in the applied formulation; liquid culture (PDB), growth inhibition measured photometrically after 3 to 4 days; compared to untreated control; read-out: disease control
Summary of the method: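 Percent activity against the untreated check was derived from photometric growth measurements made 2 to 7 days after conidia in potato dextrose broth were combined with compound at 20 ppm. Cultures were kept dark at 24 °C and 96% humidity.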

Phakopsora Pachyrhizi = experiment: Fungicidal activity against Phakopsora pachyrhizi / soybean / leaf disc preventative (Asian soybean rust); type: in vivo; settings: foliar, 200 ppm in the applied formulation, soybean leaf disks, compared to untreated control leaf disks, read-out: disease control
Summary of the method: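 Scored 12 to 14 days post-application as percent control relative to untreated check discs, rust spores were sprayed under the disc one day after compound treatment. Incubation: 20°C, 75% rh, first 24–36 h in darkness, then 12 h daily light; discs kept on water agar.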

[2] = system: Puccinia recondita f. Sp. Tritici; experiment: Fungicidal activity against Puccinia recondita f. sp. tritici / wheat / leaf disc curative (brown rust); type: in vivo; settings: foliar, 24 h, 200 ppm in the applied formulation, wheat leaf segments, curative (applied 1 day after inoculation), compared to untreated control leaf disks, read-out: disease control
Summary of the method: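 Curative test on wheat leaf segments (cv. Kanzler) on agar, inoculated with spore suspension and held dark at 19° C, 75% RH; formulated compound in water applied 1 day after inoculation. Incubated at 19° C, 75% RH, 12 h light/12 h dark; percent disease control versus untreated scored 6 to 8 days after application.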

[3] = system: Puccinia recondita f. Sp. Tritici; experiment: Fungicidal activity against Puccinia recondita f. sp. tritici / wheat / leaf disc preventative (brown rust); type: in vivo; settings: foliar, 200 ppm in the applied formulation, wheat leaf segments, preventative, compared to untreated control leaf disks, read-out: disease control
Summary of the method: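 200 ppm spray on wheat cv. Kanzler leaf segments; spore inoculation +1 day; 19° C., 75% rh, 12 h/12 h light cycle; single rating of % control vs untreated at 7 to 9 days.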

COC(C)C(=O)N(Cc1ccc(-c2noc(C(F)(F)F)n2)cc1)C(C)C (centres unmarked) [Compound 1.685, N-isopropyl-2-methoxy-N-[[4-[5-(trifluoromethyl)-1,2,4-oxadiazol-3-yl]phenyl]methyl]-propanamide]
≥ 80%: inhibition of growth at 20 ppm [1] | pest or weed control at 200 ppm (Phakopsora Pachyrhizi) | pest or weed control at 200 ppm [2] | pest or weed control at 200 ppm [3]

C=CCN(Cc1ccc(-c2noc(C(F)(F)F)n2)cc1)C(=O)C1CC1F (centres unmarked) [Compound 1.491, N-allyl-2-fluoro-N-[[4-[5-(trifluoromethyl)-1,2,4-oxadiazol-3-yl]phenyl]methyl]-cyclopropane-carboxamide]
≥ 80%: inhibition of growth at 20 ppm [1] | pest or weed control at 200 ppm (Phakopsora Pachyrhizi) | pest or weed control at 200 ppm [2] | pest or weed control at 200 ppm [3]

C#CCN(Cc1ccc(-c2noc(C(F)(F)F)n2)cc1)C(=O)C1CC1(C)C (centres unmarked) [Compound 1.189, 2,2-dimethyl-N-prop-2-ynyl-N-[[4-[5-(trifluoromethyl)-1,2.4-oxadiazol-3-yl]phenyl]methyl]-cyclopropane-carboxamide]
≥ 80%: inhibition of growth at 20 ppm [1] | pest or weed control at 200 ppm (Phakopsora Pachyrhizi) | pest or weed control at 200 ppm [2] | pest or weed control at 200 ppm [3]

CCC(COC)C(=O)N(Cc1ccc(-c2noc(C(F)(F)F)n2)cc1)C1CC1 (centres unmarked) [Compound 1.134, N-cyclopropyl-2-(methoxymethyl)-N-[[4-[5-(trifluoromethyl)-1,2,4-oxadiazol-3-yl]phenyl]methyl]-butanamide]
≥ 80%: inhibition of growth at 20 ppm [1] | pest or weed control at 200 ppm (Phakopsora Pachyrhizi) | pest or weed control at 200 ppm [2] | pest or weed control at 200 ppm [3]

CNC(=O)N(Cc1ccc(-c2noc(C(F)(F)F)n2)c(F)c1)OC [Compound 3.44, 1-[[3-fluoro-4-[5-(trifluoromethyl)-1,2,4-oxadiazol-3-yl]phenyl]methyl]-1-methoxy-3-methyl-urea]
≥ 80%: inhibition of growth at 20 ppm [1] | pest or weed control at 200 ppm (Phakopsora Pachyrhizi) | pest or weed control at 200 ppm [2] | pest or weed control at 200 ppm [3]

C=CCN(Cc1ccc(-c2noc(C(F)(F)F)n2)cc1)C(=O)CCCOC [Compound 1.487, N-allyl-4-methoxy-N-[[4-[5-(trifluoromethyl)-1,2,4-oxadiazol-3-yl]phenyl]methyl]-butanamide]
≥ 80%: inhibition of growth at 20 ppm [1] | pest or weed control at 200 ppm (Phakopsora Pachyrhizi) | pest or weed control at 200 ppm [2] | pest or weed control at 200 ppm [3]

CCCC(=O)N(Cc1ccc(-c2noc(C(F)(F)F)n2)cc1)C1CC1 [Compound 1.97, N-cyclopropyl-N-[[4-[5-(trifluoromethyl)-1,2,4-oxadiazol-3-yl]phenyl]methyl]-butanamide]
≥ 80%: inhibition of growth at 20 ppm [1] | pest or weed control at 200 ppm (Phakopsora Pachyrhizi) | pest or weed control at 200 ppm [2] | pest or weed control at 200 ppm [3]

COCCC(=O)N(CCOC)Cc1ccc(-c2noc(C(F)(F)F)n2)cc1 [Compound 1.335, 3-methoxy-N-(2-methoxyethyl)-N-[[4-[5-(trifluoromethyl)-1,2,4-oxadiazol-3-yl]phenyl]methyl]-propanamide]
≥ 80%: inhibition of growth at 20 ppm [1] | pest or weed control at 200 ppm (Phakopsora Pachyrhizi) | pest or weed control at 200 ppm [2] | pest or weed control at 200 ppm [3]

CN(Cc1ccc(-c2noc(C(F)(F)F)n2)cc1)C(=O)C1CC1 [Compound 1.532, N-methyl-N-[[4-[5-(trifluoromethyl)-1,2,4-oxadiazol-3-yl]phenyl]methyl]-cyclopropane-carboxamide]
≥ 80%: inhibition of growth at 20 ppm [1] | pest or weed control at 200 ppm (Phakopsora Pachyrhizi) | pest or weed control at 200 ppm [2] | pest or weed control at 200 ppm [3]

CCON(Cc1ccc(-c2noc(C(F)(F)F)n2)cc1)C(=O)CCCOC [Compound 1.625, N-ethoxy-4-methoxy-N-[[4-[5-(trifluoromethyl)-1,2,4-oxadiazol-3-yl]phenyl]methyl]-butanamide]
≥ 80%: inhibition of growth at 20 ppm [1] | pest or weed control at 200 ppm (Phakopsora Pachyrhizi) | pest or weed control at 200 ppm [2] | pest or weed control at 200 ppm [3]

CC(C)C(=O)N(Cc1ccc(-c2noc(C(F)(F)F)n2)cc1)C(C)C [Compound 1.670, N-isopropyl-2-methyl-N-[[4-[5-(trifluoromethyl)-1,2,4-oxadiazol-3-yl]phenyl]methyl]-propanamide]
≥ 80%: inhibition of growth at 20 ppm [1] | pest or weed control at 200 ppm (Phakopsora Pachyrhizi) | pest or weed control at 200 ppm [2] | pest or weed control at 200 ppm [3]

CN(Cc1ccc(-c2noc(C(F)(F)F)n2)cc1)C(=O)C1CCCO1 (centres unmarked) [Compound 1.528, N-methyl-N-[[4-[5-(trifluoromethyl)-1,2,4-oxadiazol-3-yl]phenyl]methyl]-tetrahydrofuran-2-carboxamide]
≥ 80%: inhibition of growth at 20 ppm [1] | pest or weed control at 200 ppm (Phakopsora Pachyrhizi) | pest or weed control at 200 ppm [2] | pest or weed control at 200 ppm [3]

CC1(C(=O)N(Cc2ccc(-c3noc(C(F)(F)F)n3)cc2)C2COC2)CC1 [Compound 1.743, 1-methyl-N-(oxetan-3-yl)-N-[[4-[5-(trifluoromethyl)-1,2,4-oxadiazol-3-yl]phenyl]methyl]-cyclopropane-carboxamide]
≥ 80%: inhibition of growth at 20 ppm [1] | pest or weed control at 200 ppm (Phakopsora Pachyrhizi) | pest or weed control at 200 ppm [2] | pest or weed control at 200 ppm [3]

CON(Cc1ccc(-c2noc(C(F)(F)F)n2)cc1)C(=O)N(C)C1COC1 [Compound 3.59, 1-methoxy-3-methyl-3-(oxetan-3-yl)-1-[[4-[5-(trifluoromethyl)-1,2,4-oxadiazol-3-yl]phenyl]methyl]urea]
≥ 80%: inhibition of growth at 20 ppm [1] | pest or weed control at 200 ppm (Phakopsora Pachyrhizi) | pest or weed control at 200 ppm [2] | pest or weed control at 200 ppm [3]

COCCC(=O)ON(Cc1ccc(-c2noc(C(F)(F)F)n2)cc1)C(=O)CCOC [Compound 1.759, [3-methoxy-propanoyl-[[4-[5-(trifluoromethyl)-1,2,4-oxadiazol-3-yl]phenyl]methyl]-amino] 3-methoxypropanoate]
≥ 80%: inhibition of growth at 20 ppm [1] | pest or weed control at 200 ppm (Phakopsora Pachyrhizi) | pest or weed control at 200 ppm [2] | pest or weed control at 200 ppm [3]

CON(Cc1ccc(-c2noc(C(F)(F)F)n2)cc1)C(=O)N1CCCC1 [Compound 3.60, N-methoxy-N-[[4-[5-(trifluoromethyl)-1,2,4-oxadiazol-3-yl]phenyl]methyl]-pyrrolidine-1-carboxamide]
≥ 80%: inhibition of growth at 20 ppm [1] | pest or weed control at 200 ppm (Phakopsora Pachyrhizi) | pest or weed control at 200 ppm [2] | pest or weed control at 200 ppm [3]

CCON(Cc1ccc(-c2noc(C(F)(F)F)n2)cc1)C(=O)C1(C)CC1 [Compound 1.621, N-ethoxy-1-methyl-N-[[4-[5-(trifluoromethyl)-1,2,4-oxadiazol-3-yl]phenyl]methyl]-cyclopropane-carboxamide]
≥ 80%: inhibition of growth at 20 ppm [1] | pest or weed control at 200 ppm (Phakopsora Pachyrhizi) | pest or weed control at 200 ppm [2] | pest or weed control at 200 ppm [3]

COCCN(Cc1ccc(-c2noc(C(F)(F)F)n2)cc1)C(=O)C1CC1(F)F (centres unmarked) [Compound 1.327, 2,2-difluoro-N-(2-methoxyethyl)-N-[[4-[5-(trifluoromethyl)-1,2,4-oxadiazol-3-yl]phenyl]methyl]-cyclopropane-carboxamide]
≥ 80%: inhibition of growth at 20 ppm [1] | pest or weed control at 200 ppm (Phakopsora Pachyrhizi) | pest or weed control at 200 ppm [2] | pest or weed control at 200 ppm [3]

CON(Cc1ccc(-c2noc(C(F)(F)F)n2)cc1)C(=O)C1CC1(F)F (centres unmarked) [Compound 1.15, 2,2-difluoro-N-methoxy-N-[[4-[5-(trifluoromethyl)-1,2,4-oxadiazol-3-yl]phenyl]methyl]-cyclopropane-carboxamide]
≥ 80%: inhibition of growth at 20 ppm [1] | pest or weed control at 200 ppm (Phakopsora Pachyrhizi) | pest or weed control at 200 ppm [2] | pest or weed control at 200 ppm [3]

CON(Cc1ccc(-c2noc(C(F)(F)F)n2)c(F)c1F)C(=O)C1CC1 [Compound 1.584, N-[[2,3-difluoro-4-[5-(trifluoromethyl)-1,2,4-oxadiazol-3-yl]phenyl]methyl]-N-methoxy-cyclopropane-carboxamide]
≥ 80%: inhibition of growth at 20 ppm [1] | pest or weed control at 200 ppm (Phakopsora Pachyrhizi) | pest or weed control at 200 ppm [2] | pest or weed control at 200 ppm [3]
